Measurements taken from patent publication US9023809B2, “Phenylalanine dipeptide derivatives, compositions and use thereof” (The Key Laboratory of Chemistry For Natural Products of …, priority 2008, dated 2015).
≈ marks a conversion by molar mass, not a printed value. Where “and” joins values, the source holds several entries; their conditions need not be identical. Equal entries are not always repeated. *1 amine or outer side, *2 acyl side, *3 side chain or, on linkers, in order; H or OH if unused. Where a SMILES comes first, the peptide text is derived from it. [ ]: non-standard residue; d: D form. The star is where a group is joined. Tyr(3-NO2) = N[C@@H](Cc1ccc(O)c([N+](=O)[O-])c1)C(=O)O; Phe(4-NH2) = Nc1ccc(C[C@H](N)C(=O)O)cc1; Suc = O=C(CCC(=O)[*:2])[*:1]; 4Abz = Nc1ccc(C(=O)O)cc1; Propionyl = CCC(=O)*; Bz = O=C(c1ccccc1)*; ClAc = O=C(CCl)*

How the values were obtained:
2.2.15 cells = experiment: Cytotoxicity (TC50, median toxic concentration) in 2.2.15 cells; type: cell-based
Protocol: Cell control wells were simultaneously set up. […] IC50 and SI were calculated, respectively.

| Structure (SMILES) | melting point [°C] | TC50 (2.2.15 cells) |
| --- | --- | --- |
| COC(=O)[C@H](Cc1ccc([N+](=O)[O-])cc1)NC(=O)[C@H](Cc1ccccc1)NCc1ccncc1 | 224.5 to 225.5 |  |
| COC(=O)[C@H](Cc1ccccc1)NC(=O)[C@H](Cc1ccc(O)cc1)NC(=O)c1ccccc1 (Bz-Tyr-Phe-OMe) | 200 to 202 |  |
| COC(=O)[C@H](Cc1ccc(O)cc1)NC(=O)[C@H](Cc1ccccc1)NC(=O)c1ccc(C)cc1 [Example 17, methyl N-(N-^4-methyl-benzoyl-L-phenylalanyl)-L-tyrosinate] |  | 465.23 µg/mL (≈ 1010 µM) |
| O=C(N[C@@H](Cc1ccccc1)C(=O)N[C@H](CO)Cc1ccccc1)c1ccc(O)cc1 [Example 27, N-(N-4-hydroxyl-benzoyl-L-phenylalanyl)-L-phenylalaninol] | 223 to 225 | 441.29 µg/mL and 456.75 µg/mL |
| COC(=O)[C@H](Cc1ccccc1)NC(=O)[C@H](Cc1ccc(O)cc1)NC(=O)c1ccc([N+](=O)[O-])cc1 | 212 to 214 |  |
| COC(=O)[C@H](Cc1ccccc1)NC(=O)[C@H](Cc1ccccc1)NC(=O)c1ccccc1Cl [Example 10, methyl N-(N-2-chloro-benzoyl-L-phenylalanyl)-L-phenylalaninate] | 152.5 to 153.5 | 288.68 µg/mL (≈ 621 µM) |
| CCC(=O)Nc1ccc(C[C@H](NC(=O)c2ccc(Cl)cc2)C(=O)N[C@@H](Cc2ccccc2)C(=O)OC)cc1 [Example 70, methyl N-[N-(4-chloro-benzoyl)-4-propionamido-L-phenylalanyl]-L-phenylalaninate] |  | 17.81 µg/mL (≈ 33.2 µM) |
| O=C(N[C@@H](Cc1ccccc1)C(=O)N[C@H](CO)Cc1ccccc1)c1ccccc1Cl [Example 08, N-(N-2-chloro-benzoyl-L-phenylalanyl)-L-phenylalaninol] |  | 166.70 µg/mL (≈ 382 µM) |
| COC(=O)[C@H](Cc1ccc(N)cc1)NC(=O)[C@H](Cc1ccccc1)NC(=O)c1ccccc1.Cl [Example 58, methyl N-(N-benzoyl-L-phenylalanyl)-4-amino-L-phenylalaninate hydrochloride] (Bz-Phe-[Phe(4-NH2)]-OMe) | 173 to 175 | 28.74 µg/mL |
| COC(=O)[C@H](Cc1ccccc1)NC(=O)[C@H](Cc1ccccc1)NC(=O)c1ccccc1 [Example 01, methyl N-(N-benzoyl-L-phenylalanyl)-L-phenylalaninate] (Bz-Phe-Phe-OMe) |  | 1101.11 µg/mL (≈ 2560 µM) |
| CC(=O)Nc1ccc(C[C@H](NC(=O)[C@H](Cc2ccc(O)cc2)NC(=O)c2ccccc2)C(=O)[O-])cc1.[Na+] [Example 95, N-(N-benzoyl-L-tyrosyl)-4-acetamido-L-phenylalanine sodium salt] (Bz-Tyr-[Phe(4-NH2)](Ac)-OH) |  | 79.46 µg/mL |
| O=C(N[C@@H](Cc1ccccc1)C(=O)N[C@H](CO)Cc1ccc([N+](=O)[O-])cc1)c1ccccc1 [Example 16, N-(N-benzoyl-L-phenylalanyl)-4-nitro-L-phenylalaninol] | 192 to 195 | 52.34 µg/mL (≈ 117 µM) |
| COC(=O)[C@H](Cc1ccccc1)NC(=O)[C@H](Cc1ccccc1)NC(=O)c1ccc(NC(=O)CN2CCCC2)cc1 [Example 82, methyl N-{N-[4-(1-pyrrolidyl)acetamido-benzoyl]-L-phenylalanyl}-L-phenylalaninate] |  | 59.19 µg/mL (≈ 106 µM) |
| CCC(=O)Nc1ccc(C[C@H](NC(=O)[C@H](Cc2ccccc2)NC(=O)c2ccccc2)C(=O)OC)cc1 [Example 64, methyl N-(N-benzoyl-L-phenylalanyl)-4-propionamido-L-phenylalaninate] (Bz-Phe-[Phe(4-NH2)](Propionyl)-OMe) | 244.5 to 246 | 58.54 µg/mL (≈ 117 µM) |
| COC(=O)[C@H](Cc1ccccc1)NC(=O)[C@H](Cc1ccc(O)cc1)NC(=O)c1ccc(NC(C)=O)cc1 (Ac-[4Abz]-Tyr-Phe-OMe) | 225 to 226 |  |
| COC(=O)[C@H](Cc1ccccc1)NC(=O)[C@H](Cc1ccc(O)cc1)NCc1ccncc1 | 206.5 to 209 |  |
| COC(=O)[C@H](Cc1ccc(O)cc1)NC(=O)[C@H](Cc1ccccc1)NCc1ccncc1 [Example 46, methyl N-(N-isonicotinyl-L-phenylalanyl)-L-tyrosinate] | 216 to 217 |  |
| COC(=O)[C@H](Cc1ccccc1)NC(=O)[C@H](Cc1ccc(O)c([N+](=O)[O-])c1)NC(=O)c1ccccc1 (Bz-[Tyr(3-NO2)]-Phe-OMe) | 201 to 202.5 |  |
| COC(=O)[C@H](Cc1ccccc1)NC(=O)[C@H](Cc1ccccc1)NCc1ccncc1 | 174 to 175 |  |
| CC(=O)Nc1ccc(C[C@H](NC(=O)c2ccccc2C(=O)[O-])C(=O)N[C@H](CO)Cc2ccccc2)cc1.[Na+] [Example 53, N-[N-(2-carboxyl-benzoyl)-4-acetamido-L-phenylalanyl]-L-phenylalaninol sodium salt] |  | 354.18 µg/mL |
| O=C(N[C@H](CO)Cc1ccccc1)[C@H](Cc1ccc(O)cc1)NCc1ccncc1 [Example 47, N-(N-isonicotinyl-L-tyrosyl)-L-phenylalaninol] | 210 to 212 | 256.78 µg/mL (≈ 633 µM) |

| Structure (SMILES) | melting point [°C] | TC50 (2.2.15 cells) |
| --- | --- | --- |
| O=C(O)CCC(=O)OC[C@H](Cc1ccccc1)NC(=O)[C@H](Cc1ccccc1)NC(=O)c1ccccc1 [Example 56, N-(N-benzoyl-L-phenylalanyl)-O-(3-carboxyl-propionyl)-L-phenylalaninol] |  | 333.33 µg/mL (≈ 663 µM) |
| COC(=O)[C@H](Cc1ccccc1)NC(=O)[C@H](Cc1ccccc1)NC(=O)c1ccc(NC(C)=O)cc1 (Ac-[4Abz]-Phe-Phe-OMe) | 208 to 209.5 |  |
| Cc1ccc(C(=O)N[C@@H](Cc2ccccc2)C(=O)N[C@H](CO)Cc2ccccc2)cc1 [Example 13, N-(N-4-methyl-benzoyl-L-phenylalanyl)-L-phenylalaninol] | 200 to 202 | 776.06 µg/mL (≈ 1860 µM) |
| COC(=O)[C@H](Cc1ccccc1)NC(=O)[C@H](Cc1ccc(O)cc1)NC(=O)c1ccc(C)cc1 | 190 to 192.5 |  |
| O=C(N[C@@H](Cc1ccc(O)cc1)C(=O)N[C@H](CO)Cc1ccccc1)c1ccccc1 [Example 21, N-(N-benzoyl-L-tyrosyl)-L-phenylalaninol] | 216 to 217.5 | 28.74 µg/mL (≈ 68.7 µM) |
| O=C(N[C@@H](Cc1ccc(O)cc1)C(=O)N[C@H](CO)Cc1ccccc1)c1cccc([N+](=O)[O-])c1 | 225.5 to 227 |  |
| Cc1ccc(C(=O)N[C@@H](Cc2ccc(O)cc2)C(=O)N[C@H](CO)Cc2ccccc2)cc1 [Example 26, N-(N-4-methyl-benzoyl-L-tyrosyl)-L-phenylalaninol] | 193 to 195 | 472.10 µg/mL (≈ 1090 µM) |
| CC(=O)Nc1ccc(C[C@H](NC(=O)[C@H](Cc2ccc(O)cc2)NC(=O)c2ccc(C)cc2)C(=O)O)cc1 [Example 96, N-(N-4-methyl-benzoyl-L-tyrosyl)-4-acetamido-L-phenylalanine] |  | 199.67 µg/mL (≈ 397 µM) |
| COC(=O)[C@H](Cc1ccccc1)NC(=O)[C@H](Cc1ccccc1)NC(=O)c1cccc(C)c1 [Example 09, methyl N-(N-3-methyl-benzoyl-L-phenylalanyl)-L-phenylalaninate] | 190 to 192 | 240.38 µg/mL (≈ 541 µM) |
| COC(=O)[C@H](Cc1ccc(O)cc1)NC(=O)[C@H](Cc1ccccc1)NC(=O)c1ccccc1Cl [Example 11, methyl N-(N-2-chloro-benzoyl-L-phenylalanyl)-L-tyrosinate] | 164.5 to 167 | 500.00 µg/mL (≈ 1040 µM) |
| COC(=O)[C@H](Cc1ccc(NC(C)=O)cc1)NC(=O)[C@H](Cc1ccccc1)NC(=O)c1ccccc1 [Example 59, methyl N-(N-benzoyl-L-phenylalanyl)-4-acetamido-L-phenylalaninate] (Bz-Phe-[Phe(4-NH2)](Ac)-OMe) | 228 to 229.5 | 258.69 µg/mL (≈ 531 µM) |
| COC(=O)[C@H](Cc1ccccc1)NC(=O)[C@H](Cc1ccccc1)NC(=O)c1ccc(NC(=O)CN(C)C)cc1 [Example 81, methyl N-[N-4-(dimethylamino-acetamido)-benzoyl-L-phenylalanyl]-L-phenylalaninate] |  | 58.64 µg/mL (≈ 111 µM) |
| O=C(N[C@@H](Cc1ccc(O)cc1)C(=O)N[C@@H](Cc1ccccc1)C(=O)O)c1ccccc1 [Example 93, N-(N-benzoyl-L-tyrosyl)-L-phenylalanine] (Bz-Tyr-Phe-OH) |  | 577.35 µg/mL (≈ 1330 µM) |
| CC(=O)c1ccc(C[C@@H](CO)NC(=O)[C@H](Cc2ccccc2)NC(=O)c2ccccc2)cc1 [Example 69, N-(N-benzoyl-L-phenylalanyl)-4-acetyl-L-phenylalaninol] | 235.5 to 238 | 75.46 µg/mL (≈ 170 µM) |
| O=C([O-])CCC(=O)Nc1ccc(C(=O)N[C@@H](Cc2ccccc2)C(=O)N[C@@H](Cc2ccccc2)C(=O)[O-])cc1.[Na+].[Na+] [Example 92, N-[N-4-(3-carboxyl-propionamido)-benzoyl-L-phenylalanyl]-L-phenylalanine sodium salt] ({Suc-4Abz}-Phe-Phe-OH) |  | 379.36 µg/mL |
| COC(=O)[C@H](Cc1ccc(NC(C)=O)cc1)NC(=O)[C@H](Cc1ccccc1)NC(=O)c1ccc(C)cc1 | 221.5 to 222 |  |
| CN(C)CC(=O)Nc1ccc(C(=O)N[C@@H](Cc2ccccc2)C(=O)N[C@H](CO)Cc2ccccc2)cc1 [Example 76, N-[N-4-(dimethylaino-acetamido)-benzoyl-L-phenylalanyl]-L-phenylalaninol] |  | 37.04 µg/mL (≈ 73.7 µM) |
| O=C(N[C@@H](Cc1ccccc1)C(=O)N[C@H](CO)Cc1ccccc1)c1ccccc1 [Example 02, N-(N-benzoyl-L-phenylalanyl)-L-phenylalaninol] |  | 231.12 µg/mL (≈ 574 µM) |
| CCC(=O)Nc1ccc(C[C@H](NC(=O)[C@H](Cc2ccccc2)NC(=O)c2ccccc2)C(=O)O)cc1 [Example 94, N-(N-benzoyl-L-phenylalanyl)-4-propionamido-L-phenylalanine] (Bz-Phe-[Phe(4-NH2)](Propionyl)-OH) |  | 561.21 µg/mL (≈ 1150 µM) |
| COC(=O)[C@H](Cc1ccccc1)NC(=O)[C@H](Cc1ccccc1)NC(=O)c1ccc(O)cc1 | 151 to 153 |  |
| COC(=O)[C@H](Cc1ccccc1)NC(=O)[C@H](Cc1ccccc1)NC(=O)c1ccc(NC(=O)CCl)cc1 ({ClAc-4Abz}-Phe-Phe-OMe) | 222.5 to 224.5 |  |
